Assay results taken from patent EP4786465A1, “NOVEL COMPOUND, AND PHARMACEUTICAL COMPOSITION FOR PREVENTION OR TREATMENT OF CANCER OR TUMORS COMPRISING SAME” (Daewoong Pharmaceutical Co., Ltd., priority 2023, dated 2025).
Like-named read-outs stand apart in the source and are kept apart here.

Experiments:
Assay type in all cases: cell-based
[1] = system: NCI-H28; assay: Cell growth inhibition test (CellTiter-Glo Luminescent Cell Viability), NCI-H28; settings: Homo sapiens
Procedure: (§1) The cell growth for the compounds prepared in Examples was measured by CellTiter-Glo® Luminescednt Cell Viability (Promega, Catalog #G7571) method using NCI-H226 (addexbio), NCI-H28 (Korea Cell Line Bank) cell lines. This evaluation method is a method in which when luciferase enzyme is activated by ATP flowing out from living cells, it reacts with a luciferin substrate, and the enzyme activity at this time is measured to confirm cell viability.
(§2) Specifically, NCI-H226, and NCI-H28 cells were prepared in 100 µL of cell culture medium (RPMI medium, 10% FBS, 1% P/S, 4.5 g/L D-Glucose, 2.383 g/L HEPES Buffer, L-Glutamine, 1.5 g/L Sodium Bicarbonate, 110 mg/L Sodium pyruvate) in a white clear bottom 96-well microplate. The prepared plate was incubated in a 5% CO2 incubator at 37°C for 24 hours, and then the previously prepared compounds of Examples were finally treated at concentrations of 0.0005, 0.005, 0.05, 0.5 and 5 µM, which was repeated three times for all treatment solutions. The plates treated with the compounds of Examples were incubated in a 5% CO2 incubator at 37°C. 100 µL/well of the substrate aqueous solution containing luciferin was added to a white clear-bottom 96 well microplate, thereby initiating an enzyme reaction. The reaction was performed at room temperature in the dark for 10 minutes, and the luminescence was measured using a Flexstation3 multi-mode microplate reader. In accordance with the instructions for the CellTiter-Glo™ Luminescednt Cell Viability, the luciferase enzyme activity, which represents the amount of ATP, was measured by a chemiluminescence method, and the inhibitory activity of the compounds according to the present disclosure was calculated. The results of each compound were analyzed using Microsoft Excel, and the IC50 values were calculated using GraphPad Prism software.

[2] = system: NCI-H226; assay: Cell growth inhibition test (CellTiter-Glo Luminescent Cell Viability), NCI-H226; settings: Homo sapiens
Procedure: as §1, §2

[3] = system: transcription factor TEAD; assay: Activity inhibition test of transcription factor TEAD (ONE-Glo Luciferase assay, Hippo Pathway TEAD reporter-MCF7 recombinant cell line); settings: Homo sapiens; TEAD Reporter-MCF7 cells, 24 hours treatment, luciferase luminescence
Procedure: The transcription factor TEAD activity of the compounds prepared in the Examples was measured by the ONE-Glo™ Luciferase assay (Promega, Catalog #E6110) method using the Hippo Pathway TEAD reporter-MCF7 recombinant cell line (BPS Bioscience, Catalog #60618). Specifically, the TEAD Reporter-MCF7 cell line contains the firefly luciferase gene whose expression is regulated under the control of TEAD response elements in the MCF7, which is a human breast cancer cell line. In the cell line, a non-phosphorylated YAP/TAZ exists in the nucleus in a non-stressed condition, which continuously induces expression of the luciferase reporter. TEAD Reporter-MCF7 cells were prepared in 100 µL of cell culture medium (MEM medium, 10% FBS, 1% P/S, 400 µg/mL Geneticin, 1% […], 1 mM NA pyruvate, 10 µg/mL Insulin) in a white clear bottom 96-well microplate. The prepared plate was incubated in a 5% CO2 incubator at 37°C for 24 hours, and then the previously prepared compounds of Examples were finally treated at concentrations of 0.0005, 0.005, 0.05, 0.5 and 5 µM, which were repeated three times for all treatment solutions. The plates treated with the compounds of Examples were incubated in a 5% CO2 incubator at 37°C for 24 hours. 100 µL/well of the substrate aqueous solution containing luciferin was added to a white clear-bottom 96 well microplate, thereby initiating an enzyme reaction. The reaction was performed at room temperature for 5 minutes, and the luminescence (integration time 1000 ms) was measured using a Flexstation3 multi-mode microplate reader. In accordance with the instructions for the ONE-Glo™ Luciferase Assay, the luciferase enzyme activity, which represents the activity of the transcription factor TEAD, was measured by a chemiluminescence method, and the inhibitory activity of the compound according to the present disclosure was calculated. The results of each compound were analyzed using Microsoft Excel, and the IC50 values were calculated by GraphPad Prism software.

[4] = NCI-H28 cells, CellTiter-Glo, read-out: growth IC50 H28
[5] = NCI-H226 cells, CellTiter-Glo, read-out: growth IC50 H226

Row | Compound | IC50 [1, 4] [nM] | IC50 [2, 5] [nM] | IC50 [3] [nM] | IC50 ([1]; NCI-H28, read-out: growth IC50 H28) [nM] | IC50 ([2]; NCI-H226, read-out: growth IC50 H226) [nM]
1 | CNS(=O)(=O)N1Cc2ccc(Nc3ccc(C(F)(F)F)cc3)c(-c3cn(C)cn3)c2C1 [Example 6, N-methyl-4-(1-methyl-1H-imidazol-4-yl)-5-((4-(trifluoromethyl)phenyl)amino)isoindoline-2-sulfonamide] | 6600 | 923 | 1560 | – | –
2 | C=CC(=O)N1CCc2c(ccc(Nc3cc(F)cc(F)c3)c2-c2cn(C)cn2)C1 [Example 13, 1-(6-((3,5-difluorophenyl)amino)-5-(1-methyl-1H-imidazol-4-yl)-3,4-dihydroisoquinolin-2(1H)-yl)prop-2-en-1-one] | 2000 | 55.3 | 28 | – | –
3 | C=CC(=O)N1Cc2cc(Nc3ccc(C(F)(F)F)cc3)c(-c3cn(C)cn3)cc2C1 [Example 1, 1-(5-(1-methyl-1H-imidazol4-yl)-6-((4-(trifluoromethyl)phenyl)amino)isoindolin-2-yl)prop-2-en-1-one] | 3000 | 21.2 | 42.7 | – | –
4 | C=CC(=O)N1Cc2cc(Nc3ccc(F)cc3)c(-c3cn(C)cn3)cc2C1 [Example 11, 1-(5-((4-fluorophenyl)amino)-6-(1-methyl-1H-imidazol-4-yl)isoindolin-2-yl)prop-2-en-1-one] | – | – | 1890 | – | –
5 | C=CC(=O)N1Cc2cc(Nc3cc(F)c(F)c(F)c3)c(-c3cn(C)cn3)cc2C1 [Example 18, 1-(5-(1-methyl-1H-imidazol-4-yl)-6-((3,4,5-trifluorophenyl)amino)isoindolin-2-yl)prop-2-en-1-one] | – | – | 239 | – | –
6 | C=CC(=O)N1CCc2c(ccc(Nc3cc(C(F)(F)F)cc(C(F)(F)F)c3)c2-c2cn(C)cn2)C1 [Example 23, 1-(6-((3,5-bis(trifluoromethyl)phenyl)amino)-5-(1-methyl-1H-imidazol-4-yl)-3,4-dihydroisoquinolin-2(1H)-yl)prop-2-en-1-one] | – | – | > 5000 | – | –
7 | C=CC(=O)N1Cc2cc(Nc3ccc(Cl)cc3)c(-c3cn(C)cn3)cc2C1 [Example 19, 1-(5-((4-chlorophenyl)amino)-6-(1-methyl-1H-imidazol-4-yl)isoindolin-2-yl)prop-2-en-1-one] | – | – | 118 | – | –
8 | CNS(=O)(=O)N1Cc2cc(Nc3ccc(C(F)(F)F)cc3)c(-c3cn(C)cn3)cc2C1 [Example 2, N-methyl-5-(1-methyl-1H-imidazol-4-yl)-6-((4-(trifluoromethyl)phenyl)amino)isoindoline-2-sulfonamide] | 5200 | 89.8 | 1460 | – | –
9 | Cn1cnc(-c2cc3c(cc2Nc2ccc(C(F)(F)F)cc2)CN(CC#N)C3)c1 [Example 8, 2-(5-(1-methyl-1H-imidazol-4-yl)-6-((4-(trifluoromethyl)phenyl)amino)isoindolin-2-yl)acetonitrile] | – | – | 9350 | 10000 | 1530
10 | C=CC(=O)N1CCc2c(ccc(Nc3cc(Cl)cc(Cl)c3)c2-c2cn(C)cn2)C1 [Example 21, 1-(6-((3,5-dichlorophenyl)amino)-5-(1-methyl-1H-imidazol-4-yl)-3,4-dihydroisoquinolin-2(1H)-yl)prop-2-en-1-one] | > 5000 | 95 | 90.2 | – | –
11 | C=CC(=O)N1CCc2c(ccc(Nc3cc(F)c(F)c(F)c3)c2-c2cn(C)cn2)C1 [Example 14, 1-(5-(1-methyl-1H-imidazol-4-yl)-6-((3,4,5-trifluorophenyl)amino)-3,4-dihydroisoquinolin-2(1H)-yl)prop-2-en-1-one] | 1800 | 16.6 | 6.78 | – | –

The next lines start with results.

Row | IC50 [1, 4] [nM] | IC50 [2, 5] [nM] | IC50 [3] [nM] | Compound | IC50 ([1]; NCI-H28, read-out: growth IC50 H28) [nM] | IC50 ([2]; NCI-H226, read-out: growth IC50 H226) [nM]
12 | 2180 | 37.8 | 14.3 | C=CC(=O)N1CCc2c(ccc(Nc3ccc(C(F)(F)F)cc3)c2-c2cn3c(n2)CCC3)C1 [Example 7, 1-(5-(6,7-dihydro-5H-pyrrolo[1,2-a]imidazol-2-yl)-6-((4-(trifluoromethyl)phenyl)amino)-3,4-dihydroisoquinolin-2(1H)-yl)prop-2-en-1-one] | – | –
13 | 778 | 36 | 34.2 | C=CC(=O)N1CCc2c(ccc(Nc3ccc(C(F)(F)F)c(F)c3)c2-c2cn(C)cn2)C1 [Example 9, 1-(6-((3-fluoro-4-(trifluoromethyl)phenyl)amino)-5-(1-methyl-1H-imidazol-4-yl)-3,4-dihydroisoquinolin-2(1H)-yl)prop-2-en-1-one] | – | –
14 | – | – | 242 | C=CC(=O)N1CCc2c(ccc(Nc3cc(Cl)cc(C(F)(F)F)c3)c2-c2cn(C)cn2)C1 [Example 22, 1-(6-((3-chloro-5-(trifluoromethyl)phenyl)amino)-5-(1-methyl-1H-imidazol-4-yl)-3,4-dihydroisoquinolin-2(1H)-yl)prop-2-en-1-one] | – | –
15 | 1120 | 139 | 45 | C=CC(=O)N1CCc2c(ccc(Nc3cccc(C(F)(F)F)c3)c2-c2cn(C)cn2)C1 [Example 20, 1-(5-(1-methyl-1H-imidazol-4-yl)-6-((3-(trifluoromethyl)phenyl)amino)-3,4-dihydroisoquinolin-2(1H)-yl)prop-2-en-1-one] | – | –
16 | 636 | 35.2 | 8.1 | C=CC(=O)N1CCc2c(ccc(Nc3ccc(Br)cc3)c2-c2cn(C)cn2)C1 [Example 16, 1-(6-((4-bromophenyl)amino)-5-(1-methyl-1H-imidazol-4-yl)-3,4-dihydroisoquinolin-2(1H)-yl)prop-2-en-1-one] | – | –
17 | – | – | > 10000 | C=CC(=O)N1CCc2ccc(Nc3ccc(F)cc3)c(-c3cn(C)cn3)c2C1 [Example 12, 1-(7-((4-fluorophenyl)amino)-8-(1-methyl-1H-imidazol-4-yl)-3,4-dihydroisoquinolin-2(1H)-yl)prop-2-en-1-one] | – | –
18 | 2400 | 30.9 | 5.9 | C=CC(=O)N1CCc2c(ccc(Nc3ccc(Cl)cc3)c2-c2cn(C)cn2)C1 [Example 15, 1-(6-((4-chlorophenyl)amino)-5-(1-methyl-1H-imidazol-4-yl)-3,4-dihydroisoquinolin-2(1H)-yl)prop-2-en-1-one] | – | –
19 | 2000 | 119 | 602 | C=CC(=O)N1Cc2ccc(Nc3ccc(C(F)(F)F)cc3)c(-c3cn(C)cn3)c2C1 [Example 5, 1-(4-(1-methyl-1H-imidazol-4-yl)-5-((4-(trifluoromethyl)phenyl)amino)isoindolin-2-yl)prop-2-en-1-one] | – | –
20 | 951 | 9.8 | 25.5 | C=CC(=O)N1CCc2c(ccc(Nc3ccc(C(F)(F)F)cc3)c2-c2cn(C)cn2)C1 [Example 3, 1-(5-(1-methyl-1H-imidazol-4-yl)-6-((4-(trifluoromethyl)phenyl)amino)-3,4-dihydroisoquinolin-2(1H)-yl)prop-2-en-1-one] | – | –
21 | 10000 | 1350 | 4840 | CNS(=O)(=O)N1CCc2c(ccc(Nc3ccc(C(F)(F)F)cc3)c2-c2cn(C)cn2)C1 [Example 4, N-methyl-5-(1-methyl-1H-imidazol-4-yl)-6-((4-(trifluoromethyl)phenyl)amino)-3,4-dihydroisoquinoline-2(1H)-sulfonamide] | – | –
22 | > 5000 | 80 | 15.4 | C=CC(=O)N1CCc2c(ccc(Nc3ccc(C(F)(F)F)cc3)c2-c2cn(CC)cn2)C1 [Example 24, 1-(5-(1-ethyl-1H-imidazol-4-yl)-6-((4-(trifluoromethyl)phenyl)amino)-3,4-dihydroisoquinolin-2(1H)-yl)prop-2-en-1-one] | – | –
